Laboratory results: patent US8329755B2, “Methods for treating retroviral infections” (Roche Palo Alto LLC, priority 2004, dated 2012)

Row | melting point [°C] | SMILES
1 | 197 to 199.6 | NS(=O)(=O)c1ccc(NC(=O)Cc2ccc(Cl)c(C(=O)c3cc(Cl)ccc3Cl)c2)c(Cl)c1 [Compound I-253, 2-[4-Chloro-3-(2,5-dichloro-benzoyl)-phenyl]-N-(2-chloro-4-sulfamoyl-phenyl)-acetamide]
2 | 219 to 221.4 | N#Cc1cc(Oc2cc(CC(=O)Nc3ccc(S(N)(=O)=O)cc3)ccc2Cl)cc(C(F)(F)F)c1 [Compound I-88, 2-[4-Chloro-3-(3-cyano-5-trifluoromethyl-phenoxy)-phenyl]-N-(4-sulfamoyl-phenyl)-acetamide]
3 | 155.6 to 159 | Cc1cc(NC(=O)Cc2ccc(C)c(Oc3cc(Cl)cc(C#N)c3)c2)n(C)n1 [Compound I-226, 2-[3-(3-Chloro-5-cyano-phenoxy)-4-methyl-phenyl]-N-(2,5-dimethyl-2H-pyrazol-3-yl)-acetamide]
4 | 180.3 to 183.1 | CCc1ccc(CC(=O)Nc2ccc(S(N)(=O)=O)cc2Cl)cc1Oc1cc(C#N)cc(C#N)c1Cl [Compound I-54, 2-[3-(2-Chloro-3,5-dicyano-phenoxy)-4-ethyl-phenyl]-N-(2-chloro-4-sulfamoyl-phenyl)-acetamide]
5 | 183.2 to 185.5 | COCC(=O)N(C)S(=O)(=O)c1ccc(NC(=O)Cc2ccc(Cl)c(Oc3cc(Cl)cc(C#N)c3)c2F)c(Cl)c1 [Compound I-171, 2-[4-Chloro-3-(3-chloro-5-cyano-phenoxy)-2-fluoro-phenyl]-N-{2-chloro-4-[(2-methoxy-acetyl)-methyl-sulfamoyl]-phenyl}-acetamide]
6 | 260.9 to 263.3 | Cc1cc(CC(=O)Nc2ccc(S(N)(=O)=O)cc2)cc(C(=O)c2ccc(Cl)cc2)c1 [Compound I-254, 2-[3-(4-Chloro-benzoyl)-5-methyl-phenyl]-N-(4-sulfamoyl-phenyl)-acetamide]
7 | 159 to 161.1 | COc1cc(CC(=O)Nc2ccc(S(N)(=O)=O)cc2Cl)cc(Oc2cc(Cl)cc(C#N)c2)c1 [Compound I-136, 2-[3-(3-Chloro-5-cyano-phenoxy)-5-methoxy-phenyl]-N-(2-chloro-4-sulfamoyl-phenyl)-acetamide]
8 | 171.7 to 172.6 | Cc1cc(S(=O)(=O)NC2CCOCC2)ccc1NC(=O)Cc1ccc(C)c(Oc2cc(Cl)cc(C#N)c2)c1 [Compound I-128, 2-[3-(3-Chloro-5-cyano-phenoxy)-4-methyl-phenyl]-N-[2-methyl-4-(tetrahydro-pyran-4-ylsulfamoyl)-phenyl]-acetamide]
9 | 199 to 201.9 | N#Cc1cc(C#N)cc(Oc2cc(CC(=O)Nc3ccccc3)ccc2Cl)c1 [Compound I-211, 2-[4-Chloro-3-(3,5-dicyano-phenoxy)-phenyl]-N-phenyl-acetamide]
10 | 184 to 184.8 | Cc1cc(N(C)S(C)(=O)=O)ccc1NC(=O)Cc1ccc(C)c(Oc2cc(Cl)cc(C#N)c2)c1 [Compound I-238, 2-[3-(3-Chloro-5-cyano-phenoxy)-4-methyl-phenyl]-N-[4-(methanesulfonyl-methyl-amino)-2-methyl-phenyl]-acetamide]
11 | 184.1 to 185.5 | COc1cc(CC(=O)Nc2ccc(S(N)(=O)=O)cc2)cc(Oc2cc(Cl)cc(C#N)c2)c1 [Compound I-132, 2-[3-(3-Chloro-5-cyano-phenoxy)-5-methoxy-phenyl]-N-(4-sulfamoyl-phenyl)-acetamide]
12 | 133.1 to 140.7 | COCCC(=O)NS(=O)(=O)c1ccc(NC(=O)Cc2ccc(Cl)c(Oc3cc(Cl)cc(C#N)c3)c2F)c(Cl)c1.[Na]
13 | 192.8 to 194.1 | Cc1cc(S(N)(=O)=O)ccc1NC(=O)Cc1ccc(C)c(Oc2cc(Cl)cc(C#N)c2)c1 [Compound I-122, 2-[3-(3-Chloro-5-cyano-phenoxy)-4-methyl-phenyl]-N-(2-methyl-4-sulfamoyl-phenyl)-acetamide]
14 | 180.5 to 181.3 | COc1cc(CC(=O)Nc2ccc(S(N)(=O)=O)cc2)cc(Oc2cc(C#N)ccc2Cl)c1 [Compound I-102, 2-[3-(2-Chloro-5-cyano-phenoxy)-5-methoxy-phenyl]-N-(4-sulfamoyl-phenyl)-acetamide]
15 | 212 to 212.8 | COc1ccc(CC(=O)Nc2ccc(S(N)(=O)=O)cc2Cl)c(F)c1Oc1cc(Cl)cc(C#N)c1 [Compound I-190, 2-[3-(3-Chloro-5-cyano-phenoxy)-2-fluoro-4-methoxy-phenyl]-N-(2-chloro-4-sulfamoyl-phenyl)-acetamide]
16 | 204.1 to 206.7 | CC(C)c1ccc(CC(=O)Nc2ccc(S(N)(=O)=O)cc2)cc1Oc1cc(Cl)ccc1Br [Compound I-26, 2-[3-(2-Bromo-5-chloro-phenoxy)-4-isopropyl-phenyl]-N-(4-sulfamoyl-phenyl)-acetamide]
17 | 181.1 to 183.9 | CCc1ccc(CC(=O)Nc2ccc(S(N)(=O)=O)cc2Cl)cc1Oc1cc(Cl)cc(C#N)c1 [Compound I-47, 2-[3-(3-Chloro-5-cyano-phenoxy)-4-ethyl-phenyl]-N-(2-chloro-4-sulfamoyl-phenyl)-acetamide]
18 | 223.3 to 225 | Cl.N#Cc1cc(Cl)cc(Oc2c(Cl)ccc(CC(=O)Nc3ccc(S(=O)(=O)NC(=O)CN4CCOCC4)cc3Cl)c2F)c1
19 | 217.6 to 220.4 | CCc1ccc(CC(=O)Nc2ccc(S(N)(=O)=O)cc2C)cc1Oc1cc(C#N)cc(F)c1Cl [Compound I-50, 2-[3-(2-Chloro-5-cyano-3-fluoro-phenoxy)-4-ethyl-phenyl]-N-(2-methyl-4-sulfamoyl-phenyl)-acetamide]

Row | melting point [°C] | SMILES
20 | 186.1 to 188 | Cc1cc(S(=O)(=O)CCC#N)ccc1NC(=O)Cc1ccc(C)c(Oc2cc(Cl)cc(C#N)c2)c1 [Compound I-137, 2-[3-(3-Chloro-5-cyano-phenoxy)-4-methyl-phenyl]-N-[4-(2-cyano-ethanesulfonyl)-2-methyl-phenyl]-acetamide]
21 | 157.6 to 159.2 | CCCCC(=O)NS(=O)(=O)c1ccc(NC(=O)Cc2ccc(Cl)c(Oc3cc(Cl)cc(C#N)c3)c2F)c(Cl)c1.[Na]
22 | 129.4 to 131.6 | Cc1ccc(C#N)cc1C(=O)c1cc(CC(=O)Nc2ccccc2Cl)ccc1C [Compound I-267, N-(2-Chloro-phenyl)-2-[3-(5-cyano-2-methyl-benzoyl)-4-methyl-phenyl]-acetamide]
23 | 121 to 123.5 | O=C(Cc1ccc(Cl)c(C(=O)c2cc(Cl)ccc2Cl)c1)Nc1ccccc1Cl [Compound I-248, 2-[4-Chloro-3-(2,5-dichloro-benzoyl)-phenyl]-N-(2-chloro-phenyl)-acetamide]
24 | 216.1 to 221.3 | CCc1ccc(CC(=O)Nc2ccc(S(N)(=O)=O)cc2)cc1Oc1cc(Cl)cc(Br)c1 [Compound I-22, 2-[3-(3-Bromo-5-chloro-phenoxy)-4-ethyl-phenyl]-N-(4-sulfamoyl-phenyl)-acetamide]
25 | 228.6 to 230.9 | Cc1cc(S(N)(=O)=O)ccc1NC(=O)Cc1ccc(C)c(Oc2cc(C#N)cc(C#N)c2)c1 [Compound I-43, 2-[3-(3,5-Dicyano-phenoxy)-4-methyl-phenyl]-N-(2-methyl-4-sulfamoyl-phenyl)-acetamide]
26 | 200.3 to 201.1 | Cc1cc(CC(=O)Nc2ccc(S(N)(=O)=O)cc2C)cc(Oc2cc(C#N)ccc2Cl)c1 [Compound I-147, 2-[3-(2-Chloro-5-cyano-phenoxy)-5-methyl-phenyl]-N-(2-methyl-4-sulfamoyl-phenyl)-acetamide]
27 | 190 to 193.4 | CCc1ccc(CC(=O)Nc2ccc(S(N)(=O)=O)cc2)cc1Oc1cc(Cl)ccc1Cl [Compound I-19, 2-[3-(2,5-Dichloro-phenoxy)-4-ethyl-phenyl]-N-(4-sulfamoyl-phenyl)-acetamide]
28 | 189.3 to 192.3 | CCc1ccc(CC(=O)Nc2ccccc2)cc1Oc1cc(C#N)cc(C#N)c1Cl [Compound I-208, 2-[3-(2-Chloro-3,5-dicyano-phenoxy)-4-ethyl-phenyl]-N-phenyl-acetamide]
29 | 167.9 to 170.5 | CCc1ccc(CC(=O)Nc2ccc(S(N)(=O)=O)cc2)cc1Oc1cc(C#N)cc(F)c1Cl [Compound I-49, 2-[3-(2-Chloro-5-cyano-3-fluoro-phenoxy)-4-ethyl-phenyl]-N-(4-sulfamoyl-phenyl)-acetamide]
30 | 237.6 to 238.4 | CCc1ccc(CC(=O)Nc2ccc(S(N)(=O)=O)cc2C)c(F)c1Oc1cc(C#N)cc(C(F)F)c1 [Compound I-180, 2-[3-(3-Cyano-5-difluoromethyl-phenoxy)-4-ethyl-2-fluoro-phenyl]-N-(2-methyl-4-sulfamoyl-phenyl)-acetamide]
31 | 183.9 to 185.2 | Cc1cc(CC(=O)Nc2ccc(S(N)(=O)=O)cc2)cc(Oc2cc(Cl)cc(C#N)c2)c1 [Compound I-141, 2-[3-(3-Chloro-5-cyano-phenoxy)-5-methyl-phenyl]-N-(4-sulfamoyl-phenyl)-acetamide]
32 | 171.3 to 171.6 | COc1ccc(CC(=O)Nc2ccccc2)cc1Oc1cc(Cl)cc(C#N)c1 [Compound I-210, 2-[3-(3-Chloro-5-cyano-phenoxy)-4-methoxy-phenyl]-N-phenyl-acetamide]
33 | 209.9 to 211.5 | Cc1ccc(CC(=O)Nc2ccc(S(N)(=O)=O)cc2Cl)cc1Oc1cc(C#N)cc(C#N)c1 [Compound I-44, N-(2-Chloro-4-sulfamoyl-phenyl)-2-[3-(3,5-dicyano-phenoxy)-4-methyl-phenyl]-acetamide]
34 | 110.3 to 110.5 | Cc1cc(C(=O)CN2CCOCC2)ccc1NC(=O)Cc1ccc(C)c(Oc2cc(Cl)cc(C#N)c2)c1.O=C(O)C(F)(F)F
35 | 236.9 to 239.3 | Cc1ccc(CC(=O)Nc2ccc(S(N)(=O)=O)cc2)cc1Oc1cc(Cl)ccc1Br [Compound I-30, 2-[3-(2-Bromo-5-chloro-phenoxy)-4-methyl-phenyl]-N-(4-sulfamoyl-phenyl)-acetamide]
36 | 143.4 to 144 | N#Cc1cc(Cl)cc(Oc2c(Cl)ccc(CC(=O)Nc3ccc(S(=O)(=O)NC(=O)CCC(=O)O)cc3Cl)c2F)c1 [Compound I-188, 4-(3-Chloro-4-{2-[4-chloro-3-(3-chloro-5-cyano-phenoxy)-2-fluoro-phenyl]-acetylamino}-benzenesulfonylamino)-4-oxo-butyric acid]
37 | 74.3 to 76.5 | Cc1cc(S(=O)(=O)CCC(=O)O)ccc1NC(=O)Cc1ccc(C)c(Oc2cc(Cl)cc(C#N)c2)c1 [Compound I-125, 3-(4-{2-[3-(3-Chloro-5-cyano-phenoxy)-4-methyl-phenyl]-acetylamino}-3-methyl-benzenesulfonyl)-propionic acid]
